Where two headings read alike, the source gives them in different places.
Tests used:
Experiment in all cases: Kinase selectivity, scanMAX Kinase assay panel (DiscoverX), % control at 1 uM
Type in all cases: binding
[1] = target: T1, scanMAX Kinase assay panel (Homo sapiens, UniProt O14976); conditions: GAK; 1 uM; read-out: Percent Control (%)
T1 construct: purchased DiscoverX
T1 sequence (O14976 1-1311): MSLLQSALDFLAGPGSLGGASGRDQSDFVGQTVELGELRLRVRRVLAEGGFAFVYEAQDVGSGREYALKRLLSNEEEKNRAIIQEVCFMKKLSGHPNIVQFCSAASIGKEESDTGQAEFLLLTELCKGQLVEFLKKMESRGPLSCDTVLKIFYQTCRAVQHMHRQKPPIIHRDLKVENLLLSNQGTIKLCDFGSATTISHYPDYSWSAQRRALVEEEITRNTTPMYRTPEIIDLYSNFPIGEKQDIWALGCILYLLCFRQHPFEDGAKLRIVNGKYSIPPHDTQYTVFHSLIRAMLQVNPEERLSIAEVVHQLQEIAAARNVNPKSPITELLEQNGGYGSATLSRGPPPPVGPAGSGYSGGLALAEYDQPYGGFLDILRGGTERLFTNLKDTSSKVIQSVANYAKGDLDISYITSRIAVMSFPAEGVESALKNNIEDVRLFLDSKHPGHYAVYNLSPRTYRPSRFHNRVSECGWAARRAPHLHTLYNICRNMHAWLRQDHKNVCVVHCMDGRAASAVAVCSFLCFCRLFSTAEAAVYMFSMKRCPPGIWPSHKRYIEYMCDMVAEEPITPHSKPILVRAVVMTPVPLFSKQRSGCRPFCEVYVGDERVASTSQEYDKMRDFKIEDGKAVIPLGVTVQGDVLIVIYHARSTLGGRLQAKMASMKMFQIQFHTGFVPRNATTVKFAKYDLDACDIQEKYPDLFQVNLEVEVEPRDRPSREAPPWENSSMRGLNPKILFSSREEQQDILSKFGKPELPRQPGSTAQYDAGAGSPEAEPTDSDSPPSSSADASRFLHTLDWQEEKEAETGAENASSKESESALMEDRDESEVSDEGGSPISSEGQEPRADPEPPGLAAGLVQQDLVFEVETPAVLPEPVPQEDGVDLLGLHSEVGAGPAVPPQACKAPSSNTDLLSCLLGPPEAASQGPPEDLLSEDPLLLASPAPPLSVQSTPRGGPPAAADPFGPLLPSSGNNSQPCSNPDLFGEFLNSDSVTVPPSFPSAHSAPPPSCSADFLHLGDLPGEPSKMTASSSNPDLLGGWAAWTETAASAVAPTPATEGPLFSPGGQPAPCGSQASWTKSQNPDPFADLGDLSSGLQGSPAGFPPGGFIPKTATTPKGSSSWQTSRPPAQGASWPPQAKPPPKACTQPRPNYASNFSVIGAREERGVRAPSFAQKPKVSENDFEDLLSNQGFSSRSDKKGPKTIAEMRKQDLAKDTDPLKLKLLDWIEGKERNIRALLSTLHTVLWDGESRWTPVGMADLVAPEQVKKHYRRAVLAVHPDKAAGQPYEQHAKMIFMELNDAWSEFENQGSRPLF
How it was run: (§1)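 Read-out is percent of control, derived from the signal with compound relative to positive and negative controls: (compound − positive)/(negative − positive) × 100. Each enzyme received test drug at 1 uM in DMSO, and values under 35% count as active.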

[2] = target: T2, scanMAX Kinase assay panel (Homo sapiens, UniProt P00519, F317I); conditions: 1 uM, read-out: Percent Control (%)
T2 construct: purchased DiscoverX
How it was run: as §1

[3] = target: T3, scanMAX Kinase assay panel (Homo sapiens, UniProt P23458); conditions: 1 uM, read-out: Percent Control (%)
T3 construct: purchased DiscoverX
How it was run: as §1

[4] = target: T4, scanMAX Kinase assay panel (Homo sapiens, UniProt P43403); conditions: ZAP70; 1 uM; read-out: Percent Control (%)
T4 construct: purchased DiscoverX
T4 sequence (P43403 1-619): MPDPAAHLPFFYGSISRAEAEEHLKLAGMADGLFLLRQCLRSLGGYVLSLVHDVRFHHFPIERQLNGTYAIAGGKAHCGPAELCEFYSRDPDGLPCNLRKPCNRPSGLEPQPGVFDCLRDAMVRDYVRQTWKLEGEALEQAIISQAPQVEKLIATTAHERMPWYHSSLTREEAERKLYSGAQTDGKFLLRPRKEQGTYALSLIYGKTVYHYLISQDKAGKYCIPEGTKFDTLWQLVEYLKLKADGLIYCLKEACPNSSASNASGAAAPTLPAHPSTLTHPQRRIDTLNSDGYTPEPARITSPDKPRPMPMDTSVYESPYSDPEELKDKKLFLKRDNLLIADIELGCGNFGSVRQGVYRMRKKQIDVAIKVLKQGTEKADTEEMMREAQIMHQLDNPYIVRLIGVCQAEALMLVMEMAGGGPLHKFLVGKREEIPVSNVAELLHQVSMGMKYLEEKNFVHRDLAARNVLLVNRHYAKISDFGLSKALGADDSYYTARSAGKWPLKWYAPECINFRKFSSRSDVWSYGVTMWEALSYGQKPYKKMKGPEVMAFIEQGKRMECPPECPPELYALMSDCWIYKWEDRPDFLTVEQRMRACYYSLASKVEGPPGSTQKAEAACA
How it was run: as §1

[5] = target: T5, scanMAX Kinase assay panel (Homo sapiens, UniProt Q02779); conditions: MLK2; 1 uM; read-out: Percent Control (%)
T5 construct: purchased DiscoverX
How it was run: as §1

[6] = target: T6, scanMAX Kinase assay panel (Homo sapiens, UniProt Q15746); conditions: MYLK; 1 uM; read-out: Percent Control (%)
T6 construct: purchased DiscoverX
How it was run: as §1

[7] = target: T7, scanMAX Kinase assay panel (Homo sapiens, UniProt Q16816); conditions: PHKG1; 1 uM; read-out: Percent Control (%)
T7 construct: purchased DiscoverX
How it was run: as §1

[8] = target: T8, scanMAX Kinase assay panel (Homo sapiens, UniProt Q8NEV4); conditions: MYO3A; 1 uM; read-out: Percent Control (%)
T8 construct: purchased DiscoverX
How it was run: as §1

[9] = target: T9, scanMAX Kinase assay panel (Homo sapiens, UniProt Q9H2X6); conditions: HIPK2; 1 uM; read-out: Percent Control (%)
T9 construct: purchased DiscoverX
How it was run: as §1

T6 sequence (Q15746 whole entry): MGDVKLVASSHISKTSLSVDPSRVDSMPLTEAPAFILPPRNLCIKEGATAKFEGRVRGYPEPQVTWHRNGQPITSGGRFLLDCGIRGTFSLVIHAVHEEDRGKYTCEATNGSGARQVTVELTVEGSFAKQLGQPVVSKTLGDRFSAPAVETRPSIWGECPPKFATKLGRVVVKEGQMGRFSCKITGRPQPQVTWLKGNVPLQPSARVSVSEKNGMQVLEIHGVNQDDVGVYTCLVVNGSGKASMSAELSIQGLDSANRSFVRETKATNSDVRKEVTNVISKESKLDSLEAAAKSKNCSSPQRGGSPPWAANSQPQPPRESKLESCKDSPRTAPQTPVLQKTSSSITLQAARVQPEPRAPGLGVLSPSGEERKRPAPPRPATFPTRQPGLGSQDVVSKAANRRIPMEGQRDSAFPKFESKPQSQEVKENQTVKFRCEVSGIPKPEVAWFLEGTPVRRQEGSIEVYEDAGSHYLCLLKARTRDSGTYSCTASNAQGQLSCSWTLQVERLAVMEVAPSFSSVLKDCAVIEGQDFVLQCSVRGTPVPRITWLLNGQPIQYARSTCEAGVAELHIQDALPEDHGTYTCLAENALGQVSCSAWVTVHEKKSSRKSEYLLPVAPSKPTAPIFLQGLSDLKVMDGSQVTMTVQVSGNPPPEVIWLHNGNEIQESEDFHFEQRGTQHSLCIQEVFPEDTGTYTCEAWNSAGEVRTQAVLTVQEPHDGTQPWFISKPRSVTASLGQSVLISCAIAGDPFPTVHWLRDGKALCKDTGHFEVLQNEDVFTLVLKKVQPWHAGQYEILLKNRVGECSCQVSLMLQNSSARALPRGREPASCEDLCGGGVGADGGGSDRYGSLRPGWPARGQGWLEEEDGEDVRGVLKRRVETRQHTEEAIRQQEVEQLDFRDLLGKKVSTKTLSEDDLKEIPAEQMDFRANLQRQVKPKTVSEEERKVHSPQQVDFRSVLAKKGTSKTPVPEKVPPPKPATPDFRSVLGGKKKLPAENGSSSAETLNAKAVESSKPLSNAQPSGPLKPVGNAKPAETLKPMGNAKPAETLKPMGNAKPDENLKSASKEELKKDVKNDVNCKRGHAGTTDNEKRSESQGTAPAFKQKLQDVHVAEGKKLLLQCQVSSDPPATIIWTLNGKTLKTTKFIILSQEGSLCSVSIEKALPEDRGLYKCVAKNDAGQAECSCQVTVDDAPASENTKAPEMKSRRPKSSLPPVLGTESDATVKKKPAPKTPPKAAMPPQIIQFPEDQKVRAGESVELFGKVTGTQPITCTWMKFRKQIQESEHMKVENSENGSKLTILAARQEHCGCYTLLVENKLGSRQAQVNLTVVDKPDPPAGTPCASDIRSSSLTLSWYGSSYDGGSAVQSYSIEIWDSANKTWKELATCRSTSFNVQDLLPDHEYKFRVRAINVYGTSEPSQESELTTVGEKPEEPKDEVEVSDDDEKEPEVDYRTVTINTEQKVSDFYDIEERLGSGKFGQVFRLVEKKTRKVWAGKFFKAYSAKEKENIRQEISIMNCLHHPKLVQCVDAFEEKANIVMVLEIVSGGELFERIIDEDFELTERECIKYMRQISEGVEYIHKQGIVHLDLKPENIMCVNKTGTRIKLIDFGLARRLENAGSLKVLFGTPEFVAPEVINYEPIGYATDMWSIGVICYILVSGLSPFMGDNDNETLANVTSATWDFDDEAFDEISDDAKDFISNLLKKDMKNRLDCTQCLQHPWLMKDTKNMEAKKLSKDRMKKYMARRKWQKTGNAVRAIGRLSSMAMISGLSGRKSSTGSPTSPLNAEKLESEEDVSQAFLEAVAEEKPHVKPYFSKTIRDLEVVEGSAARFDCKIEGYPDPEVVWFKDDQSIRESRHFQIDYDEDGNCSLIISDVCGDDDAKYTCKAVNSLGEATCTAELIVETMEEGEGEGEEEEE
T9 sequence (Q9H2X6 whole entry): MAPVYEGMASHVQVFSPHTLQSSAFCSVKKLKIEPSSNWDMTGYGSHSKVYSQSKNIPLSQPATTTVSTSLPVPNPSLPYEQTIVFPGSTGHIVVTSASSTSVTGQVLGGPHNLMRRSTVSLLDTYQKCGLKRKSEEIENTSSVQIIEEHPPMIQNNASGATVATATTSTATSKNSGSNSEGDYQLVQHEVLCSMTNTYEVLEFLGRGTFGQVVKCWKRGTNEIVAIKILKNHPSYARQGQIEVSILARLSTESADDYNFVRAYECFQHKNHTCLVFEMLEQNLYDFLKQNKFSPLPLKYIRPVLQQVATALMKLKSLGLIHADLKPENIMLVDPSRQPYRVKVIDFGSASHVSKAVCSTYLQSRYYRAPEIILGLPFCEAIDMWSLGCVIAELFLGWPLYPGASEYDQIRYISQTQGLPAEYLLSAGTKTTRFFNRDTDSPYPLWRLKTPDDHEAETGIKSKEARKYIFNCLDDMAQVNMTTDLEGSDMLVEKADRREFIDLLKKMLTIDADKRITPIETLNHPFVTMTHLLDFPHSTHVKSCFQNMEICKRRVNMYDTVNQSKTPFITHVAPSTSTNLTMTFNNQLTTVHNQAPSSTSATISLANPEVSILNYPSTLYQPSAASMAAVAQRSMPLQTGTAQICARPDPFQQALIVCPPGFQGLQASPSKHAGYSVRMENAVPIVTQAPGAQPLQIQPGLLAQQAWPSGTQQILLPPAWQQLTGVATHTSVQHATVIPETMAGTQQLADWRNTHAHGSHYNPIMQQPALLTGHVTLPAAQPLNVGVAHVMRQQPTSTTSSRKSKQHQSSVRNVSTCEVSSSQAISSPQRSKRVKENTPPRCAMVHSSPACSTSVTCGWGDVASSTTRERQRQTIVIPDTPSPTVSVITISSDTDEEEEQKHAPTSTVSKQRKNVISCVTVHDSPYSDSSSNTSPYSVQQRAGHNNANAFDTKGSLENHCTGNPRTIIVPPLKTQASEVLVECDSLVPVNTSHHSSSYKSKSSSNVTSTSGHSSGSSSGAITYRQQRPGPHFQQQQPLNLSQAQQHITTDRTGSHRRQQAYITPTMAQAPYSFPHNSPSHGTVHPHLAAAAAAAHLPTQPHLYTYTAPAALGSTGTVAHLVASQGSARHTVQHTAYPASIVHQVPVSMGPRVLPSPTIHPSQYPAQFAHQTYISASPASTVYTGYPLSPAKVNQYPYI
T5 sequence (Q02779 whole entry): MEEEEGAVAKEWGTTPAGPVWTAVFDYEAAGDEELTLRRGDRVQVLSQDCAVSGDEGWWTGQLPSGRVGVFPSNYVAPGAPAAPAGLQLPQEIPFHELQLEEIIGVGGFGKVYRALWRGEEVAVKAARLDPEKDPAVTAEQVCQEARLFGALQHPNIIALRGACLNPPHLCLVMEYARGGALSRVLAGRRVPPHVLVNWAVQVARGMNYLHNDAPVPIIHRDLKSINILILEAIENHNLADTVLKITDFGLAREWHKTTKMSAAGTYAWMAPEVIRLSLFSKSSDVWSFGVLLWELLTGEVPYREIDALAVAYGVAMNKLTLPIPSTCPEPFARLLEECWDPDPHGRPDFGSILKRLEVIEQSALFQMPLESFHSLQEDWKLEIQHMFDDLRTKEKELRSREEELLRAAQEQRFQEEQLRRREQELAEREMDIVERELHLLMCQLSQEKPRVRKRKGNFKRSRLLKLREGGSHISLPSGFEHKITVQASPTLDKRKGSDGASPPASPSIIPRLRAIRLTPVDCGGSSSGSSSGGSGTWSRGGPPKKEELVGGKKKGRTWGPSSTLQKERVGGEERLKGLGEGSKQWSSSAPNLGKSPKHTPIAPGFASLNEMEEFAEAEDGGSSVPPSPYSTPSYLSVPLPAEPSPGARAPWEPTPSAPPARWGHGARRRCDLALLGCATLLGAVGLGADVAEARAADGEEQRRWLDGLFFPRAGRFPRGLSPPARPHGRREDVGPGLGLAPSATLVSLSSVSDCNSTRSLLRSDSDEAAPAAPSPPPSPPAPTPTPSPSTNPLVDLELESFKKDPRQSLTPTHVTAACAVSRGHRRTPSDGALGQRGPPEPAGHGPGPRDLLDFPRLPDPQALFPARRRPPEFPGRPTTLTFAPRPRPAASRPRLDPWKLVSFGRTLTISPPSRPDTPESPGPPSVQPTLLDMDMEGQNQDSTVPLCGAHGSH
T7 sequence (Q16816 whole entry): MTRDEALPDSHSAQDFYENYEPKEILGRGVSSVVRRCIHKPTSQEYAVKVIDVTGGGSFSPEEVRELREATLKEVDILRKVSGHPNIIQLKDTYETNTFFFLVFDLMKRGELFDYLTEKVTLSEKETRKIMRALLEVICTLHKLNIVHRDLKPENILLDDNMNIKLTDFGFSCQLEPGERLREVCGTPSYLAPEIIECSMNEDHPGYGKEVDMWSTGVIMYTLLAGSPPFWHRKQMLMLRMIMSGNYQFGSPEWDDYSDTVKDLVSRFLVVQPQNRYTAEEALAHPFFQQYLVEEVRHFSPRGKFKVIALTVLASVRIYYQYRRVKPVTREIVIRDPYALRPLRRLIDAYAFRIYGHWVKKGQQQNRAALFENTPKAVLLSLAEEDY

Cc1ccc(C(=O)Nc2ccc(CN3CCN(C)CC3)c(C(F)(F)F)c2)cc1C#Cc1cnc2c(Nc3cnn(C)c3)cccn12 [Example 1, 4-methyl-3-((8-((1-methyl-1H-pyrazol-4-yl)amino)imidazo[1,2-a]pyridin-3-yl)ethynyl)-N-(4-((4-methylpiperazin-1-yl)methyl)-3-(trifluoromethyl)phenyl)benzamide]
remaining binding at 1 µM [1]: 7% | remaining binding at 1 µM ([2]; ABL1 (F317I)-nonphosphorylated): 1% | remaining binding at 1 µM ([2]; ABL1 (F317I)-phosphorylated): 3% | remaining binding at 1 µM ([3]; JAK1 (JH1domain-catalytic)): 17% | remaining binding at 1 µM ([3]; JAK1 (JH2domain-pseudokinase)): 70% | remaining binding at 1 µM [4]: 26% | remaining binding at 1 µM [5]: 29% | remaining binding at 1 µM [6]: 64% | remaining binding at 1 µM [7]: 85% | remaining binding at 1 µM [8]: 14% | remaining binding at 1 µM [9]: 61%

Cc1cn(-c2cc(NC(=O)c3ccc(C)c(C#Cc4cnc5c(Nc6cnn(C)c6)cccn45)c3)cc(C(F)(F)F)c2)cn1 [Example 12, 4-methyl-N-(3-(4-methyl-1H-imidazol-1-yl)-5-(trifluoromethyl)phenyl)-3-((8-((1-methyl-1H-pyrazol-4-yl)amino)imidazo[1,2-a]pyridin-3-yl)ethynyl)benzamide]
remaining binding at 1 µM [1]: 87% | remaining binding at 1 µM ([2]; ABL1 (F317I)-nonphosphorylated): 10% | remaining binding at 1 µM ([2]; ABL1 (F317I)-phosphorylated): 28% | remaining binding at 1 µM ([3]; JAK1 (JH1domain-catalytic)): 78% | remaining binding at 1 µM ([3]; JAK1 (JH2domain-pseudokinase)): 44% | remaining binding at 1 µM [4]: 100% | remaining binding at 1 µM [5]: 48% | remaining binding at 1 µM [6]: 100% | remaining binding at 1 µM [7]: 84% | remaining binding at 1 µM [8]: 88% | remaining binding at 1 µM [9]: 100%

Cc1ccc(NC(=O)C2(C(=O)Nc3ccc(F)cc3)CC2)cc1C#Cc1cnc2c(Nc3cnn(C(C)C)c3)cccn12 [Example 78]
remaining binding at 1 µM [1]: 100% | remaining binding at 1 µM ([2]; ABL1 (F317I)-nonphosphorylated): 36% | remaining binding at 1 µM ([2]; ABL1 (F317I)-phosphorylated): 72% | remaining binding at 1 µM ([3]; JAK1 (JH1domain-catalytic)): 92% | remaining binding at 1 µM ([3]; JAK1 (JH2domain-pseudokinase)): 100% | remaining binding at 1 µM [4]: 96% | remaining binding at 1 µM [5]: 94% | remaining binding at 1 µM [6]: 100% | remaining binding at 1 µM [7]: 88% | remaining binding at 1 µM [8]: 100% | remaining binding at 1 µM [9]: 100%
